Results taken from PubChem BioAssay AID1645866 (Buhrlage Lab, Dana-Farber Cancer Institute and Novartis …, 2021).
Activity calls are given as the source filed them.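 How the source made its calls: active means in confirmatory dose-response testing, peak deubiquitinase inhibition of 30% or more; inactive means the rest.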

The compounds below were run against Ubiquitin carboxyl-terminal hydrolase 28 (Homo sapiens) (UniProt Q96RU2) (assay: Concentration-response biochemical assay confirming initial hits as inhibitors of ubiquitin-specific protease 28 (AID 1645866)). Conditions: purified USP28, ubiquitin-rhodamine fluorescence, 30 min.
Chain of Ubiquitin carboxyl-terminal hydrolase 28 (Homo sapiens) (Q96RU2 whole entry, looked up): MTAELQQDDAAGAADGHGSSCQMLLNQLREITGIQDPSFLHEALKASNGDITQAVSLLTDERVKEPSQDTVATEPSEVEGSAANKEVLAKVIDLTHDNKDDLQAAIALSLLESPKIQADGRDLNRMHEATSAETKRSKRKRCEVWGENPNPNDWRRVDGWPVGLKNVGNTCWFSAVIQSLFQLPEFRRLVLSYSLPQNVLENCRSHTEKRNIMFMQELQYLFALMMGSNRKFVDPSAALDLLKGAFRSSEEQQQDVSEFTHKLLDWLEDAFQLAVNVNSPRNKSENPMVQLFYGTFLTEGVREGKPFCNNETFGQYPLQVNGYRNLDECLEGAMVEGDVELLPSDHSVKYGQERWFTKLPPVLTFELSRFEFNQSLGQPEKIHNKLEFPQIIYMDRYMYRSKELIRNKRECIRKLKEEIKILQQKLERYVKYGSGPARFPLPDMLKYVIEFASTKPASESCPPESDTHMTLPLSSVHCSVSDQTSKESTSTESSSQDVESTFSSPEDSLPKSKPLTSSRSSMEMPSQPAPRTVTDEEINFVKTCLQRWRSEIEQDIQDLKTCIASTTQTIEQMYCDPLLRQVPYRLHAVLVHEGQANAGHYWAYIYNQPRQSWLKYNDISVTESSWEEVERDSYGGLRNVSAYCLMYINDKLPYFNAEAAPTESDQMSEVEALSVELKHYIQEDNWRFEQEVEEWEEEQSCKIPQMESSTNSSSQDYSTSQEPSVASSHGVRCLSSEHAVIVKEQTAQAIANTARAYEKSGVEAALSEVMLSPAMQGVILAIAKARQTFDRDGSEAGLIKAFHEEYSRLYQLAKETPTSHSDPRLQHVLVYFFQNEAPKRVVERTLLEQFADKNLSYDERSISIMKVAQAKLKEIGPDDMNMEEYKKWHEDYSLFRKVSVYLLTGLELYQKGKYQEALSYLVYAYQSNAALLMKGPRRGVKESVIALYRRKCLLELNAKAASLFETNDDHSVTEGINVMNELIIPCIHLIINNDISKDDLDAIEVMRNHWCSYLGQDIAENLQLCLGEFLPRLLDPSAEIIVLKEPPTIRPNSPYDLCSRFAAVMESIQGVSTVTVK

Row | SMILES | IC50
1 | O=C(NC1CC1)c1ccnn1-c1ccc2ccc(-c3ccncc3)cn12 | > 50 µM (inactive)
2 | O=C(CNC(=O)c1cccc(F)c1)Nc1nc2ccccc2[nH]1 | 24.5 µM
3 | CC(=O)Nc1ccc([C@H]2OCC(=O)N(C3CCOCC3)[C@@H]2CO)cc1 | > 50 µM (inactive)
4 | Cc1nc(C(=O)Nc2cccc(Cl)c2Cl)nn1-c1cc(Cl)cc(Cl)c1 | 0.163 µM
5 | COc1ccc(/C=C/C(=O)Nc2c3c(nc4c2CCC4)CCCC3)cc1 | 12.1 µM
6 | O=C1C[C@@H]2O[C@H](CNC(=O)[C@@H]3CN(CCN3C(=O)C3CCOCC3)C(=O)[C@@H]3C[C@@H](CN3Cc3ccc(F)c(F)c3)N1)[C@@H](O)[C@H]2O | > 50 µM (inactive)
7 | O=C(COc1ccc2oc3c(c2c1)CCCC3)Nc1ccccn1 | 24.9 µM
8 | COc1ccc(-n2nnc(C(=O)Nc3ccccc3)c2N)cc1 | > 50 µM (inactive)
9 | C=C1CCC2[C@](C)(CCC[C@]2(C)C(=O)OC)[C@H]1CCc1ccoc1/C=C/C(=O)O (some centres not stated) | 29.1 µM
10 | O=C1Nc2ccccc2C(=O)C1C(c1ccc(Cl)cc1)C1C(=O)Nc2ccccc2C1=O (configuration not stated) | 28.6 µM
11 | COc1cccc(NC(=O)C2CCC(CNS(=O)(=O)c3ccc4c(c3)C(C)(C)C(=O)N4C)CC2)c1 (configuration not stated) | 2.6 µM
12 | COc1ccc(CNC(=O)C(C)n2nc(-c3ccco3)c(-c3cc(C)no3)cc2=O)cc1 (configuration not stated) | 26.4 µM
13 | COc1cc(Cl)ccc1Oc1ncnc2sc(C)c(C)c12 | > 50 µM (inactive)
14 | O=C(COc1ccc2c(-c3ccccc3)cc(=O)oc2c1)Nc1cccnc1 | 2.54 µM
15 | COc1ccccc1CNC(=O)C1CCCN(c2nc3ccsc3c(=O)s2)C1 (configuration not stated) | 9.07 µM
16 | Cc1ccccc1C(=O)Nc1ccc(Cc2ccc(NC(=O)c3ccccc3C)c(O)c2)cc1O | 43.7 µM
17 | CN(C(=O)c1ccncc1)[C@H]1CC[C@@]2(C)C[C@H](c3ccccc3)C[C@](C)(O2)[C@@H]1O | > 50 µM (inactive)
18 | COC1/C=C/OC2(C)Oc3c(C)c(O)c4c(c3C2=O)C(=O)C=C(NC(=O)/C(C)=C\C=C\C(C)C(O)C(C)C(O)C(C)C(OC(C)=O)C1C)C4=O (configuration not stated) | 38 µM
19 | CN1C(=O)[C@]23CC4=CC=C[C@H](O)[C@H]4N2C(=O)[C@@]1(CO)SS3 | > 50 µM (inactive)

Row | SMILES | IC50
20 | O=C1CC(O)C(C2=CC(=O)c3c(O)cccc3C2=O)O1 (configuration not stated) | 1.91 µM
21 | CCCCc1nc2sc3c(SCC(=O)Nc4cccc(C)c4)ncnc3c2c2c1CCC2 | 14 µM
22 | O=C(Nc1ccc(F)cc1F)NC1CCN(c2ccccc2)C1=O (configuration not stated) | 21.7 µM
23 | O=C1CC(C(=O)Nc2ccccc2Cl)n2nc(-c3ccccc3)cc2N1 (configuration not stated) | 19.3 µM
24 | O=c1c2ccccc2ncn1C1CCN(S(=O)(=O)c2ccccc2F)CC1 | 30.6 µM
25 | COCC(C)Nc1ncc(-c2cnccn2)c(-c2ccc(C)s2)n1 (configuration not stated) | > 50 µM (inactive)
26 | Nc1nc(-c2ccc[nH]2)cs1 | > 50 µM (inactive)
27 | CN(C)c1ccc(/C=N/NC(=O)c2ccc(Cl)cc2)cc1 | 16.7 µM
28 | O=C(c1ccc(Cl)cc1)c1c[nH]cc1-c1c(F)cccc1Cl | 33.1 µM
29 | Cn1ncc2c(=O)n(Cc3cccc(Cl)c3)cnc21 | 12.9 µM
30 | Cc1ccc(NC(=O)c2ccc(Nc3nnc(C)c4ccccc34)cc2)cc1 | 6.02 µM
31 | COc1cc(NC(=O)COC(=O)Cn2cnc3ccccc32)cc(OC)c1 | 40 µM
32 | NC(=O)c1nc(-c2ccccn2)nc2c1[nH]c(=O)n2-c1ccc2c(c1)OCO2 | 6.72 µM
33 | Cc1ccccc1Cc1nc(-c2ccc(=O)[nH]c2)no1 | 0.946 µM
34 | Cc1ccccc1C(=O)OCCN1C(=O)c2cccc3c(N4CCOCC4)ccc(c23)C1=O | > 50 µM (inactive)
35 | Cc1ccc(-c2cnc(C3CC3)o2)cc1S(=O)(=O)Nc1ccc(F)c(Cl)c1 | 32.5 µM
36 | Cc1nc(Nc2c3ccccc3nc3ccccc23)sc1C | > 50 µM (inactive)
37 | O=C(/C=C/c1ccccc1)N1CCN(C2=NS(=O)(=O)c3ccccc32)CC1 | > 50 µM (inactive)
